# What was measured:
# [1] = Zone of inhibition test of salicylic acid and botanicals in FGZ base; type: cell-based; conditions: ingredients in FGZ base; test organism not given
# Protocol: Various botanicals, salicylic acid and combinations were mixed in FGZ gel and antibacterial efficacy was evaluated.
# Table 1: Antibacterial Activity of Salicylic Acid and Botanicals in FGZ Base (Zone of Inhibition Test)
# S. aureus = assay: Rapid kill (15 seconds) suspension test, ASTM E2783-11; type: cell-based; conditions: 15 seconds contact, ingredient in FGZ gel, log 10 reduction of 3.0 or higher counts as effective
# Protocol: Table 2: Antibacterial Activity (Rapidity of Kill Test Organism S. aureus)
# Rapid kill (15 seconds) test tube method described in ASTM-E2783-1198751-1 (suspension test).
# In vitro rapid-kill test was carried out according to ASTM E2783-11; 10^8 CFU mL^−1 microbial cultures were prepared in a TSA media in order to determine the antimicrobial activity of acne formulations. 0.9 mL acne formulation was kept in contact with 0.1 mL microbial cultures for 15 seconds and subsequently neutralized using agent DE. PBS was used as a control.
SMILES,Zone of inhibition (mm) [1] [mm],Log reductrion from control growth (S. aureus)
"O=C(O)c1ccccc1O [Salicylic acid 2%, Salicylic acid]",1,2.1
[H]/N=C(\N/C(=N/[H])NCCCCCCNC(=N)NC(=N)Nc1ccc(Cl)cc1)Nc1ccc(Cl)cc1 [chlorhexidine gluconate],–,0.2

# Source: US20210346425A1, “BOTANICAL FILM-FORMING ACNE COMPOSITIONS” (priority 2018, published 2021)
